Data on eleven molecules can be found in patent EP0336356A2, “Derivatives of tryptophan as CCK antagonists” (ABBOTT LABORATORIES, priority 1988, dated 1989).

Assay [1] has as its target T1, CCK receptors (Cavia porcellus, UniProt Q63931).
T1 construct: cortex and pancreas were removed and rinsed with ice-cold saline; from tissue; host or cells: guinea pig pancreas membranes
T1 sequence (Q63931 1-430): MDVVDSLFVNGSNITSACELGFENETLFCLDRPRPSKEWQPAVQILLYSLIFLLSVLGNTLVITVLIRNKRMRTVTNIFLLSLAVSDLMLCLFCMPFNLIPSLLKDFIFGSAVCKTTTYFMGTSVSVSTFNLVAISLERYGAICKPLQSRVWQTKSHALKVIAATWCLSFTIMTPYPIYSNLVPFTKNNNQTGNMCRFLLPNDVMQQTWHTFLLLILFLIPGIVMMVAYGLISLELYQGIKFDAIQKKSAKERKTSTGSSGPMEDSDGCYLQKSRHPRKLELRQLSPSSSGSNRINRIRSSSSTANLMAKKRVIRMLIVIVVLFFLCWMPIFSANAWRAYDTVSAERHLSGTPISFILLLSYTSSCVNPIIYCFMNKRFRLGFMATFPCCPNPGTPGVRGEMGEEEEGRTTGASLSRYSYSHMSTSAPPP
The assay is described as follows: [125I]BH-CCK8 radioligand binding, guinea pig pancreatic membranes. The conditions noted are these: 37°C for 30 min, read-out: IC₅₀ (nM) [¹²⁵I]-BH-CCK₈ Pancreas.

In assay [2] the test system is CCK receptors. The assay is described as follows: Antagonism of CCK mediated behavioral effect in mice (reversal of CCK-induced inactivity). In kind it is in vivo. The conditions noted are these: minimally effective dose, ICV, coadministered with CCK₈ 3 nmol, male Swiss CD-1 mice, statistically significant reversal of CCK-induced inactivity. The text has this: Male Swiss CD-1 mice (Charles River) (22-27 g) were provided with ample food (Purina Lab (show) and water until the time of their injection with the test compound.
ICV injections were given by a free-hand method similar to that previously described (Haley, and McCormick, Br. J. Pharmacol. Chemother. 12 12-15 (1957)). The animals were placed on a slightly elevated metal grid and restrained by the thumb and forefinger at the level of the shoulders, thus immobilizing their heads. Injections were made with a 30 gauge needle with a "stop" consisting of a piece of tygon tubing to limit penetration of the needle to about 4.5 mm below the surface of the skin. The needle was inserted perpendicular to the skull at a midline point equidistant from thje eye and an equal distance posterior from the level of the eyes such that the injection site and the two eyes form an equilateral triangle. The injection volme (5 ul) was expelled smoothly over a period of approximately 1 second. […]
For the behavioral observations, the mice were placed in clear plastic cages. Each cage measured 19 x 26 x 15 centimeters and contained a 60-tube polypropylene test tube rack (NALGENE #5970-0020) placed on end in the center of the cage to enhance exploratory activity. […] Differences among groups were analyzed by Newman-Kewels analysis and a probability level of p<0.05 was accepted as significant. […]

The target of assay [3] is T1, CCK receptors. The assay is described as follows: Inhibition of CCK8-stimulated amylase release from guinea pig pancreatic acini. In kind it is cell-based. The conditions noted are these: reference concentration for CCK₈ 3x10⁻¹⁰M, 37°C, 30 min, read-out: IC₅₀ (nM) Inhibition of Amylase Release. The method, then:
This assay was performed using the modified protocol of Lin et al., J. Pharmacol Exp. Ther. 236, 729-734, 1986. Guinea pig acini were prepared by the method of Bruzzone et al. (Biochem. J. 226, 621-624, 1985) as follows. Pancreas was dissected out and connective tissues and blood vessels were removed. […] The composition of the KRH buffer was: HEPES, 12.5 mM: NaCl, 118 mM; […] CaCl₂, 1 mM; KH₂PO₄, 1.2 mM; MgSO₄, 1.2 mM; NaHCO₃, 5 mM; glucose, 10 mM, pH 7.4. The buffer was supplemented with 1% MEM vitamins, 1% MEM amino acids and 0.001% aprotinin. The tube was shaken by hand until the suspension appeared homogeneous, usually 5 to 6 min. 5 mL of the KRH, without collagenase and with 0.1% BSA, were added and the tube was centrifuged at 50 x g for 35 sec. The supernatant was discarded and 6 mL of the KRH were added to the cell pellet. […] This wash procedure was repeated once. The cell pellet from the last centrifugation step was then resuspended in 15 mL of KRH containing 0.1% BSA. The contents were filtered through a dual nylon mesh, size 275 and 75 um. The filtrate, containing the acini, were centrifuged at 50 x g for 3 min. The acini were then resuspended in 5 mL of KRH-BSA buffer for 30 min at 37°C, under 100% O₂, with a change of fresh buffer at 15 min. After the 30 min incubation time, the acini were resuspended in 100 volumes of KRH-BSA buffer, containing 3 uM phosphoramidon and 100 µM bestatin. […] The final assay volume was 500 uL. Tubes were vortexed and placed in a 37°C waterbath, under 100% O₂, for 30 min. Afterward, tubes were centrifuged at 10,000 g for 1 min. Amylase activity in the supernatant and the cell pellet were separately determined after appropriate dilutions in 0.1% Triton X-100, 10 mM NaH₂PO₄, pH 7.4 by Abbott Amylase A-gent test using the Abbott Bichromatic Analyzer 200. […]

Assay [4] addresses T2, CCK receptors (Cavia porcellus, UniProt H0VZC5).
T2 construct: cortex and pancreas were removed and rinsed with ice-cold saline; from tissue; host or cells: guinea pig cerebral cortex membranes
T2 sequence (H0VZC5 1-426): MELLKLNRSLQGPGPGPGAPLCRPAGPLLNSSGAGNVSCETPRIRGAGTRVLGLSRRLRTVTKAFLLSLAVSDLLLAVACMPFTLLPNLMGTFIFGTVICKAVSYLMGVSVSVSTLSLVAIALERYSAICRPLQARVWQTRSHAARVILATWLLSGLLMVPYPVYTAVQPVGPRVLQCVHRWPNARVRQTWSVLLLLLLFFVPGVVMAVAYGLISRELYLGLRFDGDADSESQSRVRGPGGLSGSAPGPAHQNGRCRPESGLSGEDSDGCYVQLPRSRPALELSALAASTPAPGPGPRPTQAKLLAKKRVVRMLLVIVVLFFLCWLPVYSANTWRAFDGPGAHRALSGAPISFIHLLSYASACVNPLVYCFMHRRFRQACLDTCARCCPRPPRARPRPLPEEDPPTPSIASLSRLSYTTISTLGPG
Kind of assay: [125I]BH-CCK8 radioligand binding, guinea pig cerebral cortical membranes. The conditions noted are these: 30°C for 150 min, read-out: IC₅₀ (nM) [¹²⁵I]-BH-CCK₈ Cortex.

As to `CCCCCN(CCCCC)C(=O)[C@@H](Cc1c[nH]c2ccccc12)NC(=O)c1cnc2ccccc2c1` [Example 21, N-(3′-Quinolylcarbonyl)-R-Tryptophan-di-n-pentylamide], the IC50 at CCK receptors [1] amounted to 14 nM; on CCK receptors [3], 42 nM; at CCK receptors [4], 15000 nM. In addition, the MED with CCK receptors [2] came to 0.3 nmol.

For `COC(=O)[C@@H](NC(=O)[C@@H](Cc1c[nH]c2ccccc12)NC(=O)c1cc2ccccc2[nH]1)c1ccccc1` [Example 25, Methyl N-(2,indolylcarbonyl)-R-Tryptophyl-S-Phenylglycinate], the figures for the IC50 at CCK receptors [1], at CCK receptors [3] and at CCK receptors [4] were 150 nM, less than 10000 nM and 10000 nM, respectively.

For `CCOC(=O)CN(Cc1ccccc1)C(=O)[C@@H](Cc1c[nH]c2ccccc12)NC(=O)c1cc2ccccc2[nH]1` [Example 28, Ethyl N-(2′-Indolylcarbonyl)-R-Tryptophyl-(N-benzyl)Glycinate], the values for the IC50 at CCK receptors [1], at CCK receptors [3] and at CCK receptors [4] were 280 nM, less than 10000 nM and 10000 nM, respectively.

As to `CCOC(=O)CN(Cc1ccccc1)C(=O)[C@@H](Cc1c[nH]c2ccccc12)NC(=O)c1cnc2ccccc2c1` [Example 29, Ethyl N-(3′-Quinolylcarbonyl)-R-Tryptophyl-(N-benzyl)Glycinate], the IC50 at CCK receptors [1] was 88 nM; on CCK receptors [3], less than 10000 nM; at CCK receptors [4] it was 9200 nM.

Take `COC(=O)[C@H](NC(=O)C(Cc1c[nH]c2ccccc12)NC(=O)c1cnc2ccccc2c1)c1ccccc1` (stereo partly shown) [Example 31, Methyl N-(3′-Quinolylcarbonyl)-Tryptophyl-R-Phenylglycinate]: the IC50 on CCK receptors [1] is 300 nM; on CCK receptors [3] it was less than 100000 nM; at CCK receptors [4], greater than 10000 nM.

In the case of `COC(=O)[C@@H](NC(=O)C(Cc1c[nH]c2ccccc12)NC(=O)c1cnc2ccccc2c1)c1ccccc1` (stereo partly shown) [Example 32, Methyl N-(3′-Quinolylcarbonyl)-Tryptophyl-S-Phenylglycinate], the IC50 on CCK receptors [1] is 120 nM; on CCK receptors [3], less than 30000 nM; on CCK receptors [4], greater than 10000 nM.

With `CN(Cc1ccccc1)C(=O)C(Cc1c[nH]c2ccccc12)NC(=O)c1cnc2ccccc2c1` (stereo not shown) [Example 33, N-(3′-Quinolylcarbonyl)-Tryptophan-(N-methyl,N-benzyl)amide], the IC50 at CCK receptors [1] is 530 nM; at CCK receptors [3], less than 30000 nM; on CCK receptors [4], 10000 nM.

For `C[C@H](NC(=O)[C@@H](Cc1c[nH]c2ccccc12)NC(=O)c1cnc2ccccc2c1)c1ccccc1` [Example 36, N-(3′-Quinolylcarbonyl)-R-Tryptophan-(1′,S-phenylethyl)amide], the IC50 at CCK receptors [1] is 380 nM; at CCK receptors [3] it was less than 10000 nM; at CCK receptors [4], greater than 10000 nM.

On to `C[C@@H](NC(=O)[C@@H](Cc1c[nH]c2ccccc12)NC(=O)c1cnc2ccccc2c1)c1ccccc1` [Example 39, N-(3′-Quinolylcarbonyl)-R-Tryptophan-(1′,R-phenylethyl)amide], for which the IC50 was 110 nM at CCK receptors [1], less than 10000 nM at CCK receptors [3] and greater than 10000 nM on CCK receptors [4].

On to `O=C(NC(Cc1c[nH]c2ccccc12)C(=O)N1CCC2CCCCC2C1)c1cnc2ccccc2c1` (stereo not shown) [Example 40, N-(3′-Quinolylcarbonyl)-Tryptophan-perhydroisoquinolylamide], for which the values for the IC50 on CCK receptors [1], on CCK receptors [3] and on CCK receptors [4] were 1000 nM, less than 100000 nM and 10000 nM, respectively.

As to `CCCCCN(CCCCC)C(=O)[C@H](Cc1c[nH]c2ccccc12)NC(=O)c1cnc2ccccc2c1` [Example 100, N-(3′-Quinolylcarbonyl)-S-Tryptophan-di-n-pentylamide], the IC50 is 670 nM on CCK receptors [1], less than 100000 nM on CCK receptors [3] and 6300 nM on CCK receptors [4].
